Data reported in paper PMC9873307, “Methylone, a rapid acting entactogen with robust anxiolytic and antidepressant-like activity” (Frontiers in Psychiatry, 2023).
Where two headings read alike, the source gives them in different places.

What was measured:
serotonin uptake = conditions: cited from earlier work
male Sprague Dawley rats [1] = assay: Open field test (OFT): locomotor activity and time in center; type: in vivo, rat
Description: (§1) Male Sprague Dawley rats (Charles River Laboratories) weighing 180–200 g on arrival, were used for all behavioral studies, which took place at Melior Discovery (Exton, PA, USA). Rats acclimated to their home cages for at least 1 week before testing, were maintained in a controlled environment on a 12 h light/dark cycle, with no more than 2 rats per cage. Animals received ad libitum access to standard rodent chow and water and were assigned randomly to treatment groups. All animal use and procedures were in accordance with established protocols approved by the Melior IACUC committee, Melior Standard Operation Procedures (SOP), and Transcend Therapeutics. Distinct cohorts of animals were used for each experiment/Figure presented in this manuscript.
(§2) Methylone HCl (0.5–30 mg/kg; Cayman Chemical) or Fluoxetine HCl (10 mg/kg; Sigma-Aldrich) were formulated in sterile 0.9% saline vehicle before IP administration. Control animals received saline vehicle. Methylone or saline was administered 30 min prior to FST or OFT testing sessions. Fluoxetine or saline were administered 23.5, 5, and 1 h prior to testing, consistent with previous studies ([19]).
All studies were performed by an experimenter blind to treatment group and according to standard protocols at Melior Discovery (Exton, PA, USA). The OFT was used to assess both locomotor activity and anxiety-like behavior. The OFT was run in a standard rat OFA chamber (17 ^^′′ × 17 ^^′′ × 12 ^^′′ , Med Associates). After habituation to the testing room and drug injection, rats were assessed for 30 min in the OFT using an automated activity monitoring system (MedAssociates). Locomotor activity was measured by recording the total ambulatory distance traveled (cm), reported in 5-min bins for the duration of the 30 min testing period. The center of the open field was defined as a 12 ^^′′ square, a predefined center setting on the MedAssociates analysis software. Time spent in the center of the open field, an anxiolytic measure, was also recorded for the 30 min testing period.

[2] = system: serotonin receptor 1A (5-HTR1A); set-up: method as in PMID 23583454; conditions: not all reports support activity ([43]); cited from earlier work
male Sprague Dawley rats [3] = assay: Forced swim test (FST); type: in vivo, rat; conditions: for percent time spent immobile: 30 min before 5-min test
Description: as §1, §2
All studies were performed and scored by an experimenter blind to treatment group according to standard protocols at Melior Discovery (Exton, PA, USA) and based on published “modified FST” procedures ([20]). Briefly, rats were placed in a circular plexiglass container (29.2 cm diameter, 49.5 cm height) filled with water to a depth of 30 cm so rats could not support themselves by touching the bottom of the tank. Water was maintained at 22–25°C and was changed for every animal. Day 1 (Training) consisted of a 15 min acclimation trial, and Day 2 (Testing, 24 h later) consisted of the 5 min test. A time sampling procedure was employed where animals were observed every 5 s for the duration of the test session (60 counts or 5 min) and scored for immobility (defined as the failure to struggle), swimming (defined as a circular movement around the tank), or climbing (defined as an upward escape behavior). Data are expressed as the percent time spent immobile, swimming, or climbing for the 5-min testing session (e.g., the number of immobility counts divided by 60). Therefore, to extrapolate these values to time spent immobile in minutes, one can multiply the percent time immobile by 5 min.

[4] = Pharmacokinetics in plasma and brain after IP dosing; type: in vivo; conditions: rat; for Kp: brain and plasma; for Kp / MRT last / half-life: ip
Description: Pharmacokinetics studies were carried out at WuXi Apptec, Inc. (Cranbury, NJ, USA) using standard protocols. All animal use and procedures were approved by the WuXi Apptec, Inc., IACUC. Briefly, terminal blood and brain samples were collected from 6 to 8 week old male Sprague Dawley rats (Hilltop Lab Animals, Inc., Scottsdale, PA, USA) at 0.25, 0.5, 1, 2, 4, and 8 h (N = 3 per group per time point) for the determination of plasma concentrations of methylone following intraperitoneal (IP) dosing of 5, 10, or 15 mg/kg methylone. Since these were terminal collections, three independent rats per group were used for each time point in a single PK curve from which PK parameters (Cmax, AUC, etc.) were generated. Samples were collected into K2EDTA tubes on ice and centrifuged at 3000 × g at 4°C for 5 min within 30 min of collection. Plasma samples were stored at −80°C until analysis by liquid chromatography tandem mass spectrometry (LC-MS/MS). The bioanalytical assay provided a lower limit of quantification (LLOQ) of 1 ng/mL and an upper limit of quantification (ULOQ) of 3000 ng/mL for methylone. The plasma concentration-time data were analyzed using Phoenix WinNonlin (version 8.3) to characterize the PK properties of the analyte. The non-compartmental analysis model and the linear/log trapezoidal method were applied to the calculation of the PK parameters.

[5] = male, Sprague Dawley, plasma, 5 mg/kg IP
[6] = male, Sprague Dawley, plasma, 10 mg/kg IP
[7] = male, Sprague Dawley, plasma, 15 mg/kg IP

## CNC(C)C(=O)c1ccc2c(c1)OCO2 (centres unmarked) [methylone, 3,4-methylenedioxy-N-methylcathinone]
Serotonin uptake; compared with MDMA
  lower potency for inhibition of serotonin uptake vs MDMA: 3–4 ×
Serotonin uptake; in vitro, compared with MDMA
  less potent inhibitor of serotonin uptake than MDMA: 3–4 fold
Serotonin uptake; in vitro, read-out: IC50 for inhibition of serotonin uptake
  IC50: 5.75 µM
Male Sprague Dawley rats [1]; methylone 0.5–10 mg/kg IP, 30 min before, Figure 4C
  distance traveled, first 5 min: did not affect locomotor activity
Male Sprague Dawley rats [1]; methylone 0.5–30 mg/kg, retest 24 h post-dose, all groups, Figure 4D
  distance traveled, first 5 min: locomotor activity returned to baseline
Male Sprague Dawley rats [1]; methylone 5–30 mg/kg, 30 min after dosing, 30 min test, Figure 5A
  time spent in the center: significantly increased time spent in the center
Male Sprague Dawley rats [1]; methylone 15–30 mg/kg IP, 30 min before, Figure 4C
  distance traveled, first 5 min: significantly increased distance traveled
Male Sprague Dawley rats [1]; methylone 15–30 mg/kg IP, Figure 4F
  distance traveled over 30-min session, 5-min bins: increased distance traveled for the duration of the testing session
[2]
  activity at 5-HTR1A: partial agonist
Male Sprague Dawley rats [3]; after a single dose of methylone
  reduced immobility relative to Vehicle controls: 78–98%
Male Sprague Dawley rats [3]; after a single dose of methylone 15 mg/kg IP
  duration of antidepressant-like effect: at least 72 h
Male Sprague Dawley rats [3]; methylone 5 mg/kg IP, Vehicle 63.9 ± 2.7%
  percent time spent immobile: 31.9 ± 4.7%
Male Sprague Dawley rats [3]; methylone 15 mg/kg IP once, 30 min, 24, 72 h, Figure 3D
  climbing vs vehicle on retest: small but significant effect of methylone on climbing was observed at 30 min only
Male Sprague Dawley rats [3]; methylone 15 mg/kg IP once, 30 min, 24, 72 h, Figure 3F
  swimming vs vehicle on retest: significantly increasing swimming at all three time points tested
Male Sprague Dawley rats [3]; methylone 15 mg/kg IP once, tested 30 min, 24 and 72 h, Figure 3B
  immobility vs vehicle on retest: reducing immobility significantly at all-time points
Male Sprague Dawley rats [3]; methylone 0.5–30 mg/kg IP dose response, 30 min before, Figure 1D
  climbing behavior vs controls: increased only by low to mid doses of methylone (5–10 mg/kg)
Male Sprague Dawley rats [3]; methylone 10–15 mg/kg IP, Vehicle 63.9 ± 2.7%
  percent time spent immobile: 4.2 ± 1.3%
Male Sprague Dawley rats [3]; methylone 20–30 mg/kg, not statistically significant
  immobility at highest doses: trend toward less reduction in immobility
Male Sprague Dawley rats [3]; methylone alone 5 mg/kg IP 30 min before, Figure 6C
  climbing compared to vehicle: significantly increased climbing
Male Sprague Dawley rats [3]; methylone alone, 15 mg/kg, Figure 1B, Vehicle 63.9 ± 2.7%
  % time immobile: 4.2 ± 1.8%
Male Sprague Dawley rats [3]; methylone dose response
  dose of first significant effect on immobility: 5 mg/kg
  dose of maximal effect on immobility: 10 mg/kg
Male Sprague Dawley rats [3]; methylone mid to high doses, 30 min before, Figure 1F
  swimming behavior vs controls: significantly increased
Male Sprague Dawley rats [3]; methylone single low dose 5 mg/kg IP, 30 min before
  change in immobility vs vehicle control: ~50%
Male Sprague Dawley rats [3]; single dose of methylone
  onset of effect: ≤ 30 min
Male Sprague Dawley rats [3]; single dose of methylone (5–30 mg/kg) 30 min prior to testing
  reduction of immobility vs. controls: ~95%
[4]; after 5 mg/kg dose
  plasma concentration: approximately 8 μM
[4]; after 10 mg/kg dose
  plasma concentration: ~18 µM
[4]; brain, 5 mg/kg IP
  AUC0–last: 1661 ng·h/g
  Tlast: 4.00 h
[4]; brain, 10 mg/kg IP
  AUC0–last: 5576 ng·h/g
  Tlast: 4.00 h
[4]; brain, 15 mg/kg IP
  AUC0–last: 13201 ng·h/g
  Tlast: 8.00 h
[4]; male, Sprague Dawley, 5 mg/kg, 5 mg/kg IP, read-out: AUC ratio (brain: plasma)
  Kp: 1.83
[4]; male, Sprague Dawley, 10 mg/kg, 10 mg/kg IP, read-out: AUC ratio (brain: plasma)
  Kp: 1.72
[4]; male, Sprague Dawley, 15 mg/kg, 15 mg/kg IP, read-out: AUC ratio (brain: plasma)
  Kp: 1.8
[4]; male, Sprague Dawley, 15 mg/kg, across 5, 10, 15 mg/kg IP, read-out: brain to plasma AUC ratio
  Kp: ~1.8
[4]; male, Sprague Dawley, brain, 5 mg/kg, brain, 5 mg/kg IP, read-out: MRT0–last
  MRT last: 41.8 min
[4]; male, Sprague Dawley, brain, 5 mg/kg, brain, 5 mg/kg IP, read-out: T1/2 (converted)
  half-life: 41.5 min
[4]; male, Sprague Dawley, brain, 10 mg/kg, brain, 10 mg/kg IP, read-out: MRT0–last
  MRT last: 61.8 min
[4]; male, Sprague Dawley, brain, 10 mg/kg, brain, 10 mg/kg IP, read-out: T1/2 (converted)
  half-life: 36.4 min
[4]; male, Sprague Dawley, brain, 15 mg/kg, brain, 15 mg/kg IP, read-out: MRT0–last
  MRT last: 60.6 min
[4]; male, Sprague Dawley, brain, 15 mg/kg, brain, 15 mg/kg IP, read-out: T1/2 (converted)
  half-life: 53 min
[4]; male, Sprague Dawley, plasma, 5 mg/kg, plasma, 5 mg/kg IP, read-out: MRT0–last
  MRT last: 40 min
[4]; male, Sprague Dawley, plasma, 5 mg/kg, plasma, 5 mg/kg IP, read-out: T1/2 (converted)
  half-life: 35.9 min
[4]; male, Sprague Dawley, plasma, 10 mg/kg, plasma, 10 mg/kg IP, read-out: MRT0–last
  MRT last: 64.2 min
[4]; male, Sprague Dawley, plasma, 10 mg/kg, plasma, 10 mg/kg IP, read-out: T1/2 (converted)
  half-life: 40.4 min
[4]; male, Sprague Dawley, plasma, 15 mg/kg, across 5, 10, 15 mg/kg IP, read-out: mean residence time (MRT0–last)
  MRT last: 42 to 67.8 min
[4]; male, Sprague Dawley, plasma, 15 mg/kg, across 5, 10, 15 mg/kg IP, read-out: terminal elimination half-life (T1/2)
  half-life: 36 to 48 min
[4]; male, Sprague Dawley, plasma, 15 mg/kg, plasma, 15 mg/kg IP, read-out: MRT0–last
  MRT last: 67.8 min
[4]; male, Sprague Dawley, plasma, 15 mg/kg, plasma, 15 mg/kg IP, read-out: T1/2 (converted)
  half-life: 48.7 min
[4]; male, Sprague Dawley, brain, 5 mg/kg IP
  Cmax: 3510 ng/g
[4]; male, Sprague Dawley, brain, 10 mg/kg IP
  Cmax: 8020 ng/g
[4]; male, Sprague Dawley, brain, 15 mg/kg IP
  Cmax: 20000 ng/g
[4]; [5]
  AUC(0-t): 908 ng·h/mL
  Cmax: 1980 ng/mL
[4]; [6]
  AUC(0-t): 3240 ng·h/mL
  Cmax: 4510 ng/mL
[4]; [7]
  AUC(0-t): 7320 ng·h/mL
  Cmax: 8470 ng/mL
[4]; male, Sprague Dawley, plasma, 5, 10 or 15 mg/kg IP
  Tmax: 15 min
[4]; plasma, 5 mg/kg IP
  Tlast: 4.00 h
[4]; plasma, 10 mg/kg IP
  Tlast: 8.00 h
[4]; plasma, 15 mg/kg IP
  Tlast: 8.00 h
